In brackets after ≈: the same amount, converted by molar mass. Like-named read-outs stand apart in the source and are kept apart here. Bridge positions count the residues as written; N and C are the ends. Square brackets hold non-standard residues; d marks the D form. Peptide text beside a SMILES is read from it. * marks the point of attachment. Ileψ(thiazoline)Cys = CC[C@H](C)[C@H](N)C1=N[C@H](C(=O)*)CS1; dOrn = NCCC[C@@H](N)C(=O)O; X1 = CC[C@H](C)CCCCC(=O)*; Dab = NCC[C@H](N)C(=O)O
How the values were obtained:
Format in all cases: cell-based, Acinetobacter baumannii
[1] = test system: extensively drug-resistant A. baumannii clinical isolates (planktonic cell); assay: microbe, parasite or virus in culture
Text: (§1) Nine XDRAB strains were isolated from clinical specimens such as the septum, urine, or respiratory lavage fluid of patients from the respiratory intensive care unit, intensive care unit, the cardiothoracic surgery department, and the neurology department at the First Affiliated Hospital of Chengdu Medical College during the period from 2018 to 2020 (Chengdu, Sichuan, China). In addition, A. baumannii ATCC 19606, Staphylococcus aureus ATCC 29213, and Escherichia coli ATCC 25922 were used as quality control strains in antimicrobial susceptibility testing (AST) and obtained from the American Type Culture Collection (ATCC, Manassas, VA, United States).
The minimum inhibitory concentrations (MICs) were determined by the broth microdilution method for the antibacterial agents and peptide antibiotics for A. baumannii based on the guidelines provided by the Clinical and Laboratory Standards Institute (CLSI) ([Humphries et al., 2021]). Briefly, bacterial cells were inoculated in Luria–Bertani agar medium at 37°C for 16–20 h, and then resuspended in saline (0.9% sodium chloride) to adjust the bacterial content to reach the 0.5 McFarland turbidity standard, followed by a 20-fold dilution. Antimicrobial solutions were prepared according to the CLSI ([Humphries et al., 2021]). Finally, 180 μl CAMHB, 10 µl corresponding antimicrobials, and 10 µl bacterial resuspension were added into 96-well plate (NEST TC, 701001, www.cell-nest.com). The value of OD600 was measured after incubating at 37°C for 16–20 h.

[2] = test system: extensively drug-resistant A. baumannii clinical isolates (biofilm cell)
Text: as §1
The minimum biofilm inhibitory concentrations (MBICs) were detected using a previous study protocol ([Kart et al., 2021]) for the antibacterial agents and peptide antibiotics for A. baumannii in the biofilm cell. First, bacterial cells were inoculated in Luria–Bertani agar medium at 37°C for 16–20 h. Next, the bacterial monoclones were resuspended in saline (0.9% sodium chloride) to adjust the bacterial content to reach the 0.5 McFarland turbidity standard. Then, 190 µl TSB and 10 µl bacterial resuspension were mixed in a 96-well plate. After incubating at 37°C for 24 h, the medium was aspirated, and 200 µl PBS was added to wash three times. Finally, 190 μl MH broth medium and 10 µl corresponding antibiotics were added into 96-well plate (NEST TC, 701001, www.cell-nest.com). The optical density was measured at OD600 after incubating for 16–20 h at 37°C.

[3] = test system: extensively drug-resistant A. baumannii isolates (biofilm cell); assay: Checkerboard synergy study in the biofilm cell (FBIC); conditions: in combination with polymyxins
Procedure: The checkerboard method, the fractional inhibitory concentration index (FICI), and the fractional biofilm inhibitory concentration index (FBIC) evaluated the synergistic effects of five peptide antibiotics combined with one of the five antimicrobials in the planktonic and biofilm cells among the nine XDRAB isolates. The planktonic cells were investigated by adding 170 µl of MHB and 10 µl of bacterial suspension (1.5 × 10^8 CFU/ml) into the 96 well plates. It was followed by adding 10 µl of serially diluted peptide antibiotics along the x-axis and antimicrobials along the y-axis. The biofilm cells were studied by cultivating the bacteria to form the biofilm into a 96-well plate (NEST TC, 701001, www.cell-nest.com) and washed with 200 µl of PBS three times. The following steps were consistent with the planktonic study. The value of OD600 was measured after incubating at 37°C for 20 h. The FICI and FBIC were evaluated as follows: Synergy between the two drugs was defined as either a FICI or an FBIC of ≤0.5, >0.5–1 for additivity, >1–2 for indifference, and >2 for antagonism ([Kim et al., 2015]; [Peng et al., 2020]; [Lin et al., 2021]).

[4] = isolate AB3, planktonic, broth microdilution, CAMHB, 37°C 16–20 h, OD600
[5] = isolate AB4, planktonic, broth microdilution, CAMHB, 37°C 16–20 h, OD600
[6] = isolate AB5, planktonic, broth microdilution, CAMHB, 37°C 16–20 h, OD600
[7] = isolate AB6, planktonic, broth microdilution, CAMHB, 37°C 16–20 h, OD600
[8] = isolate AB8, planktonic, broth microdilution, CAMHB, 37°C 16–20 h, OD600
[9] = isolate AB9, planktonic, broth microdilution, CAMHB, 37°C 16–20 h, OD600
[10] = isolate AB1, planktonic, broth microdilution, CAMHB, 37°C 16–20 h, OD600
[11] = isolate AB2, planktonic, broth microdilution, CAMHB, 37°C 16–20 h, OD600
[12] = isolate AB7, planktonic, broth microdilution, CAMHB, 37°C 16–20 h, OD600
[13] = isolate AB1, 24 h biofilm in TSB, then MH broth with drug 16–20 h 37°C, OD600
[14] = isolate AB2, 24 h biofilm in TSB, then MH broth with drug 16–20 h 37°C, OD600
[15] = isolate AB3, 24 h biofilm in TSB, then MH broth with drug 16–20 h 37°C, OD600
[16] = isolate AB4, 24 h biofilm in TSB, then MH broth with drug 16–20 h 37°C, OD600
[17] = isolate AB5, 24 h biofilm in TSB, then MH broth with drug 16–20 h 37°C, OD600
[18] = isolate AB6, 24 h biofilm in TSB, then MH broth with drug 16–20 h 37°C, OD600
[19] = isolate AB7, 24 h biofilm in TSB, then MH broth with drug 16–20 h 37°C, OD600
[20] = isolate AB8, 24 h biofilm in TSB, then MH broth with drug 16–20 h 37°C, OD600
[21] = isolate AB9, 24 h biofilm in TSB, then MH broth with drug 16–20 h 37°C, OD600
[22] = Acinetobacter baumannii, isolate AB1, planktonic, broth microdilution, CAMHB, 37°C 16–20 h, OD600, read-out: MIC
[23] = Acinetobacter baumannii, isolate AB2, planktonic, broth microdilution, CAMHB, 37°C 16–20 h, OD600, read-out: MIC
[24] = Acinetobacter baumannii, isolate AB3, planktonic, broth microdilution, CAMHB, 37°C 16–20 h, OD600, read-out: MIC
[25] = Acinetobacter baumannii, isolate AB4, planktonic, broth microdilution, CAMHB, 37°C 16–20 h, OD600, read-out: MIC
[26] = Acinetobacter baumannii, isolate AB5, planktonic, broth microdilution, CAMHB, 37°C 16–20 h, OD600, read-out: MIC
[27] = Acinetobacter baumannii, isolate AB6, planktonic, broth microdilution, CAMHB, 37°C 16–20 h, OD600, read-out: MIC
[28] = Acinetobacter baumannii, isolate AB7, planktonic, broth microdilution, CAMHB, 37°C 16–20 h, OD600, read-out: MIC
[29] = Acinetobacter baumannii, isolate AB8, planktonic, broth microdilution, CAMHB, 37°C 16–20 h, OD600, read-out: MIC
[30] = Acinetobacter baumannii, isolate AB9, planktonic, broth microdilution, CAMHB, 37°C 16–20 h, OD600, read-out: MIC
[31] = after XDRAB biofilm formation, nine isolates

Row | Molecule | MIC [1, 4] [mg/L] | MIC [1, 5] [mg/L] | MIC [1, 6] [mg/L] | MIC [1, 7] [mg/L] | MIC [1, 8] [mg/L] | MIC [1, 9] [mg/L] | MIC [1, 10] [mg/L] | MIC [1, 11] [mg/L] | MIC [1, 12] [mg/L] | MBIC [2, 13] [µg/mL] | MBIC [2, 14] [µg/mL] | MBIC [2, 15] [µg/mL] | MBIC [2, 16] [µg/mL] | MBIC [2, 17] [µg/mL] | MBIC [2, 18] [µg/mL] | MBIC [2, 19] [µg/mL] | MBIC [2, 20] [µg/mL] | MBIC [2, 21] [µg/mL] | further results
1 | CC[C@H](C)[C@H](N)C1=N[C@H](C(=O)N[C@@H](CC(C)C)C(=O)N[C@H](CCC(=O)O)C(=O)N[C@H](C(=O)N[C@H]2CCCCNC(=O)[C@H](CC(N)=O)NC(=O)[C@@H](CC(=O)O)NC(=O)[C@H](Cc3cnc[nH]3)NC(=O)[C@@H](Cc3ccccc3)NC(=O)[C@H]([C@@H](C)CC)NC(=O)[C@@H](CCCN)NC2=O)[C@@H](C)CC)CS1 [Bacitracin, bacitracin] ({Ileψ(thiazoline)Cys}-L[dE]IK[dOrn]I[dF]H[dD]N; lactam 4-C (inferred); N-terminus assumed) | 128 (≈ 90 µM) | 128 (≈ 90 µM) | 128 (≈ 90 µM) | 128 (≈ 90 µM) | 128 (≈ 90 µM) | 128 (≈ 90 µM) | – | – | – | – | – | – | – | – | – | – | – | – | MIC [1]: 64 mg/L (≈ 45 µM); MBIC ([2]; extensively drug-resistant clinical isolates (biofilm cell, 24 h)): 256 µg/mL
2 | CC[C@H](C)CCCCC(=O)N[C@@H](CCN)C(=O)N[C@H](C(=O)N[C@@H](CCN)C(=O)N[C@H]1CCNC(=O)[C@H]([C@@H](C)O)NC(=O)[C@H](CCN)NC(=O)[C@H](CCN)NC(=O)[C@H](CC(C)C)NC(=O)[C@@H](Cc2ccccc2)NC(=O)[C@H](CCN)NC1=O)[C@@H](C)O [Polymyxin B, polymyxin B] (X1-[Dab]T[Dab][Dab][Dab][dF]L[Dab][Dab]T; lactam 4-C (inferred); N-terminus assumed) | 1 (≈ 0.831 µM) | 2 (≈ 1.66 µM) | 2 (≈ 1.66 µM) | 1 (≈ 0.831 µM) | 2 (≈ 1.66 µM) | 2 (≈ 1.66 µM) | 2 (≈ 1.66 µM) | 1 (≈ 0.831 µM) | 2 (≈ 1.66 µM) | 16 | 16 | 8 | 8 | 16 | 16 | 8 | 8 | 8 | –
3 | CN(C)[C@@H]1C(O)=C(C(N)=O)C(=O)[C@@]2(O)C(O)=C3C(=O)c4c(O)cccc4[C@@](C)(O)[C@H]3C[C@@H]12 [Tetracycline, tetracycline] | – | – | – | – | – | – | – | – | – | – | – | – | – | – | – | – | – | – | MIC [1, 22]: > 1020 mg/L; MIC [1, 23]: > 1020 mg/L; MIC [1, 24]: > 1020 mg/L; MIC [1, 25]: > 1020 mg/L; MIC [1, 26]: > 1020 mg/L; MIC [1, 27]: > 1020 mg/L; MIC [1, 28]: > 1020 mg/L; MIC [1, 29]: > 1020 mg/L; MIC [1, 30]: > 1020 mg/L
4 | CN(C)c1cc(NC(=O)CNC(C)(C)C)c(O)c2c1C[C@H]1C[C@H]3[C@H](N(C)C)C(O)=C(C(N)=O)C(=O)[C@@]3(O)C(O)=C1C2=O [Tigecycline, tigecycline] | – | – | – | – | – | – | – | – | – | – | – | – | – | – | – | – | – | – | MIC [1, 22]: 1 mg/L (≈ 1.71 µM); MIC [1, 23]: 1 mg/L (≈ 1.71 µM); MIC [1, 24]: 1 mg/L (≈ 1.71 µM); MIC [1, 25]: 1 mg/L (≈ 1.71 µM); MIC [1, 26]: 1 mg/L (≈ 1.71 µM); MIC [1, 27]: 1 mg/L (≈ 1.71 µM); MIC [1, 28]: 1 mg/L (≈ 1.71 µM); MIC [1, 29]: 1 mg/L (≈ 1.71 µM); MIC [1, 30]: 0.5 mg/L (≈ 0.854 µM); sensitivity rate ([1]; planktonic cell, nine isolates): 100%; intermediate rate [2, 31]: 67%; resistance rate [2, 31]: 22%; sensitivity rate [2, 31]: 11%
5 | CN[C@H](CC(C)C)C(=O)N[C@H]1C(=O)N[C@@H](CC(N)=O)C(=O)N[C@H]2C(=O)N[C@H]3C(=O)N[C@H](C(=O)N[C@H](C(=O)O)c4cc(O)cc(O)c4-c4cc3ccc4O)[C@H](O)c3ccc(c(Cl)c3)Oc3cc2cc(c3O[C@@H]2O[C@H](CO)[C@@H](O)[C@H](O)[C@H]2O[C@H]2C[C@](C)(N)[C@H](O)[C@H](C)O2)Oc2ccc(cc2Cl)[C@H]1O [Vancomycin, vancomycin] | 128 (≈ 88.3 µM) | 64 (≈ 44.2 µM) | 128 (≈ 88.3 µM) | 128 (≈ 88.3 µM) | 64 (≈ 44.2 µM) | 128 (≈ 88.3 µM) | 64 (≈ 44.2 µM) | 64 (≈ 44.2 µM) | 128 (≈ 88.3 µM) | 256 | 128 | 128 | 128 | 256 | 256 | 128 | 128 | 128 | –
6 | CC[C@H]1OC(=O)[C@H](C)[C@@H](O[C@H]2C[C@@](C)(OC)[C@@H](O)[C@H](C)O2)[C@H](C)[C@@H](O[C@@H]2O[C@H](C)C[C@H](N(C)C)[C@H]2O)[C@](C)(O)C[C@@H](C)CN(C)[C@H](C)[C@@H](O)[C@]1(C)O [azithromycin] | – | – | – | – | – | – | – | – | – | – | – | – | – | – | – | – | – | – | MBIC when combined with polymyxins [3]: 128 µg/mL
7 | polymyxin E | 1 | 2 | 2 | 1 | 2 | 2 | 2 | 1 | 2 | 16 | 8 | 4 | 4 | 8 | 8 | 8 | 4 | 8 | –
8 | teicoplanin | 32 | 32 | 64 | 32 | 32 | 64 | 64 | 64 | 128 | – | 64 | 64 | – | – | 64 | – | – | 64 | –

Source: article PMC9130746, “In Vitro Activity of Peptide Antibiotics in Combination With Other Antimicrobials on Extensively Drug-Resistant Acinetobacter baumannii in the Planktonic and Biofilm Cell” (Frontiers in Pharmacology, 2022)
